The values that follow are results of earlier work, collected in patent US20080274215A1, “COMPOSITION FOR TREATMENT OF COLD AND FLU” (NORTHERN HOLDINGS INC., priority 2007, published 2008).

With `C=C1CCC2C(C)(CO)C(O)CCC2(C)C1C/C=C1/C(=O)OCC1O` (stereo not shown) [AG, 3-[2-[decahydro-6-hydroxy-5-(hydroxymethyl)-5,8a-dimethyl-2-methylene-1-napthalenyl]ethylidene]dihydro-4-hydroxy-2(3H)-furanone], the solubility in water entry is “sparingly soluble”.
